# Read-outs that look alike come from different tables or passages of the source.
# What was measured:
# [1] = biological target: T1, interaction of ICAM-1 with the Leukointegrin CD18/CD11a (LFA-1) (Homo sapiens, UniProt P05107+P20701); assay: Assay to determine inhibition of LFA-1 binding to ICAM-1 (immunopurified LFA-1 on plate-bound sICAM-1, ELISA readout)
# T1 construct: endogenous in cells; sICAM-1: made in house, secreted from transfected CHO DUX cells
# [2] = tested on: LFA-1 dependent aggregation of JY cells; assay: JY cell homotypic aggregation assay (PMA-stimulated); type: cell-based, human
# In short: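 JY cells (2·10^5 cells/well) in RPMI 1640 with 10% FCS incubated with test compound and […]; cells settle spontaneously and aggregation is scored at various time points. Values are concentrations (μM) giving 50% inhibition of binding.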
# [3] = tested on: cell bound form of LFA-1 (CD18, CD11a) with ICAM-1, SKW3 cells; assay: Inhibition of SKW3 cell binding to ICAM-1 (PMA-stimulated); type: cell-based, human; conditions: Homo sapiens, read-out: Assay to Detect SKW3 Cells Binding to ICAM IC50
# In short: (§1)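 Plates coated with sICAM-1 (40 μg/mL) or fibronectin (100 μg/mL) for 1 h; SKW3 cells in RPMI/15% FBS activated with PMA (50 μg/mL final) added with compound, 2 h at 37° C. Unbound cells washed off; value is concentration (μM) giving 50% binding inhibition.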
# [4] = tested on: cell bound fibronectin receptor (VLA4) with fibronectin, SKW3 cells; assay: Inhibition of SKW3 cell binding to fibronectin (selectivity counter-assay); type: cell-based, human; conditions: for IC50: read-out: Assay to Detect SKW3 Cells Binding to FIBRONECTIN IC50
# In short: as §1
# [5] = tested on: human MLR, peripheral blood mononuclear cells; assay: Inhibition of the mixed lymphocyte reaction (MLR), tritiated thymidine uptake; type: cell-based; set-up: key: Data are reported as “+” or “−” at a given concentration (in μM); Data are reported as “+” or “−” at a given concentration (in μM)
# Experimental: Assay to Determine Inhibition the Mixed Lymphocyte Reaction
# As discussed above, ICAM-1 is necessary for effective cellular interactions during an immune response mediated through LFA-1-dependent cell adhesion. When lymphocytes from two unrelated individuals are cultured together, blast transformation and cell proliferation of the lymphocytes are observed. This response is known as a mixed lymphocyte reaction (MLR) and is analogous to the response of lymphocytes to the 10 addition of antigens or mitogens (Immunology: The Science of Self-Nonself Discrimination; Klein, J., Ed.; John Wiley & Sons: NY, 1982, pp 453-458).
# This assay protocol is used to determine the effect of a test compound on the human MLR.
# Description of Assay Protocol:
# Peripheral blood is obtained from normal, healthy donors by venipuncture. The blood is collected in heparinized tubes and diluted 1:1 at room temperature with Puck's G (GIBCO) balanced salt solution (BSS). The blood mixture (20 mL) is layered over 15 mL of a Ficoll/Hypaque density gradient (Pharmacia, density=1.078, room temperature) and centrifuged at 1000·g for 20 minutes. The interface is then collected and washed 3 times in Puck's G. The cells are counted on a hemocytometer and resuspended in RPMI 1640 culture medium (GIBCO) containing 0.5% of gentamicin, 1 mM L-glutamine (GICO) and 5% heat inactivated (56° C., 30 min) human AB sera (Flow Laboratories) (hereafter referred to as RPMI-culture medium).
# Stimulator cells (cells that have been treated with irradiation so that they are unable to proliferate) from a separate donor are cultured with the responder cells at the same concentration. Test compound is added to wells at various concentrations. The total volume per culture is 0.2 mL. Controls include compound vehicle alone (DMSO), responder cells alone, and stimulator cells alone. The culture plates are incubated at 37° C. in a 5% CO2-humidified air atmosphere for 5 days.
# The wells are pulsed with 0.5 μCi of tritiated thymidine (^3HT) (New England Nuclear) for the last 18 h of culture. In some cases a two-way MLR can be performed. The protocol is the same except that the second donor's cells are not inactivated by irradiation.
# The cells are harvested onto glass fiber filters using an automated multiple sample harvester (Skatron, Norway), and rinsed with water and methanol. The filters are oven dried and counted in Aquasol in a Beckman (LS-3801) liquid scintillation counter.
# Data are reported as “+” or “−” at a given concentration (in μM).
# [6] = tested on: SKW3 cells
# [7] = values marked e approximated from incomplete dose-response curve
# [8] = SKW3, values marked c: no inhibition observed up to highest dose
# [9] = values marked c: no inhibition observed up to highest dose
# [10] = Homo sapiens, SKW3, No inh = no inhibition observed up to highest dose, exact quantification not always possible due to intrinsic toxicity
# [11] = No inh = no inhibition observed up to highest dose, exact quantification not always possible due to intrinsic toxicity
# T1 sequence (P20701 26-1170): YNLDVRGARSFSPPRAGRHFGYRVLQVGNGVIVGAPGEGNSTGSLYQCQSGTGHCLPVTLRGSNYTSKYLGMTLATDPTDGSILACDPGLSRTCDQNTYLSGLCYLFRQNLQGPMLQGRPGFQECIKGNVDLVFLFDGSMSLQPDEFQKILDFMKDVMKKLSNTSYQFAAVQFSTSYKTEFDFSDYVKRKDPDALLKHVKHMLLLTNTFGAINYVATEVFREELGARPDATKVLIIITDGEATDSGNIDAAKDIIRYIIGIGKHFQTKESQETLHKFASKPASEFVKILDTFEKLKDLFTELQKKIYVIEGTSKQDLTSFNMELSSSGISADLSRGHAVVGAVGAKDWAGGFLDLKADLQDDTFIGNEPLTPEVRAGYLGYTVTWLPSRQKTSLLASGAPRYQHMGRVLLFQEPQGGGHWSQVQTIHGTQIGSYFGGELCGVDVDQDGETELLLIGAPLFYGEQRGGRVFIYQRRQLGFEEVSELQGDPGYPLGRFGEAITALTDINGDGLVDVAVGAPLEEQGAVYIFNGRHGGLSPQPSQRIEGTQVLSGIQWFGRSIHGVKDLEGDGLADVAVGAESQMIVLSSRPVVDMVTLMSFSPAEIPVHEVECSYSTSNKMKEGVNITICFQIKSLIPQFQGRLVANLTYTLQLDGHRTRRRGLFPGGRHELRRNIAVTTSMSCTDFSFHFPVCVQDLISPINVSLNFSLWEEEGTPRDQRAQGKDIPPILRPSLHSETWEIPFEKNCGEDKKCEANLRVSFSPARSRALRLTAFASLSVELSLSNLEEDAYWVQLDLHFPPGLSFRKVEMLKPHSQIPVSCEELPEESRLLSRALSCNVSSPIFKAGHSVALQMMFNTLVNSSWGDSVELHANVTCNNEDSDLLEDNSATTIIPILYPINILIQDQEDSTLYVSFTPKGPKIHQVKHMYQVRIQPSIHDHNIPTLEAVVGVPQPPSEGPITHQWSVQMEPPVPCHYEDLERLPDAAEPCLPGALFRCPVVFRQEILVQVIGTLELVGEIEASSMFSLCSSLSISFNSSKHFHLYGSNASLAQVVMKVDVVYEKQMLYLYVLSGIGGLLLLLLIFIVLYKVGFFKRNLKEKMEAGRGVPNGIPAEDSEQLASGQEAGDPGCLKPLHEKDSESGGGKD
# T1 sequence (P05107 23-769): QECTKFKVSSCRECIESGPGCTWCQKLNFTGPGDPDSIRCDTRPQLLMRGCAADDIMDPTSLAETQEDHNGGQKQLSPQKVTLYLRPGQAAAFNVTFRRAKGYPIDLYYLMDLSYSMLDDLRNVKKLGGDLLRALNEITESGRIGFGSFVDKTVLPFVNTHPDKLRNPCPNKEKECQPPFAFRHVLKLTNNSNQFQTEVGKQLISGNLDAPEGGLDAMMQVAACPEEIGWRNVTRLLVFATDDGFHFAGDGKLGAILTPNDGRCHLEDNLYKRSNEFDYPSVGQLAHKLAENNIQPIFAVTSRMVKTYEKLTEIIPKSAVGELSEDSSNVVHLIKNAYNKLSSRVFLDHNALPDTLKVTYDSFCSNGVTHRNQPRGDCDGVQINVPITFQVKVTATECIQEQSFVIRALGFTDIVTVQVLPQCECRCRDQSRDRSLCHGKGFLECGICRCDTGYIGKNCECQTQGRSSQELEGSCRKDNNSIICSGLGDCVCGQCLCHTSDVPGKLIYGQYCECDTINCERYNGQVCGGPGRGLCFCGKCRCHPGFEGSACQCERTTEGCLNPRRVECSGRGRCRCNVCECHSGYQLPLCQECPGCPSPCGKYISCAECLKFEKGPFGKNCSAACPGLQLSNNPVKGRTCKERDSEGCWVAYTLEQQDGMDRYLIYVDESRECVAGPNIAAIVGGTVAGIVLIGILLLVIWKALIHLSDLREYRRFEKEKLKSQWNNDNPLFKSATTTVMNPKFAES
SMILES,"Kd [1, 7] [nM]",IC50 ([2]; Homo sapiens) [nM],"IC50 [3, 8] [µM]","Assay to Detect SKW3 Cells Binding to FIBRONECTIN IC50 [4, 9]",Mixed Lymphocyte Reaction MLR +/− ([5]; at 25 μM),Cellular Toxicity Assay MTT LD50 [6] [µM],IC50 ([3]; SKW3) [µM],Kd [1] [nM],further results
CC1(Cc2ccc(-c3ccccc3)cc2)NC(=O)N(c2cc(Cl)cc(Cl)c2)C1=O (centres unmarked) [Example 49],260,–,–,–,–,–,–,–,melting point: 61 to 63 °C
Cc1cc(C)cc(CC2(C)NC(=O)N(c3cc(Cl)cc(Cl)c3)C2=O)c1 (centres unmarked) [Example 50],~17000,–,–,–,–,–,–,–,melting point: > 240 °C
CC1(Cc2ccc(F)c(F)c2)NC(=O)N(c2cc(Cl)cc(Cl)c2)C1=O (centres unmarked) [Example 54],420,–,–,–,–,–,–,–,melting point: 117 to 118 °C
CC1(Cc2ccc(Cl)c(Cl)c2)NC(=O)N(c2cc(Cl)cc(Cl)c2)C1=O (centres unmarked) [Example 55],200,–,–,–,–,–,–,–,melting point: 150 to 151 °C
CC1(Cc2ccc3c(Cl)cc(C(F)(F)F)nc3c2)NC(=O)N(c2cc(Cl)cc(Cl)c2)C1=O (centres unmarked) [Example 59],330,–,–,–,–,–,–,–,melting point: 173 to 174 °C
CC1(Cc2ccc(SC(F)(F)F)cc2)NC(=O)N(c2cc(Cl)cc(Cl)c2)C1=O (centres unmarked) [Example 60],230,–,–,–,–,–,–,–,melting point: 133 to 134 °C
C[C@H]1C(=O)N(c2cc(Cl)cc(Cl)c2)C(=O)[C@]1(C)Cc1ccc(Br)cc1 [Example 72],60,1400,20 to 40,No inh^c,+(25),>363,–,–,–
CN1C(=O)N(c2cc(C(F)(F)F)cc(C(F)(F)F)c2)C(=O)C1(C)Cc1ccccc1 (centres unmarked) [Example 83],300,6000,13 to 25,–,–,250 to 500,–,–,"IC50 [4, 9]: > 200 µM; Mixed Lymphocyte Reaction MLR +/− ([5]; at 50 μM): +(50)"
CN1C(=O)N(c2cc(Cl)cc(Cl)c2)C(=O)C1Cc1ccc(Br)cc1 (centres unmarked) [Example 92],120,3100,13 to 25,No inh^c,+(25),63 to 125,–,–,–
CCCN1C(=O)N(c2cc(Cl)cc(Cl)c2)C(=O)[C@@]1(C)Cc1ccc(Br)cc1 [Example 98],55,3000,5 to 10,No inh^c,–,>340,–,–,Mixed Lymphocyte Reaction MLR +/− ([5]; at 50 μM): +(50)
CN1C(=O)N(c2cc(Cl)c(Cl)c(Cl)c2)C(=O)[C@@]1(C)Cc1ccc(Br)cc1 [Example 123],100,600,12 to 25,–,–,50 to 100,–,–,"IC50 ([4]; Homo sapiens, SKW3, values marked c: no inhibition observed up to highest dose): > 25 µM; Mixed Lymphocyte Reaction MLR +/− ([5]; at 50 μM): +(50)"
CN1C(=O)N(c2cc(Cl)cc(Cl)c2)C(=O)C1(C)Cc1ccc(F)cc1 (centres unmarked) [Example 146],130,400,13 to 25,No inh^c,–,100,–,–,Mixed Lymphocyte Reaction MLR +/− ([5]; at 50 μM): +(50)
CN1C(=O)N(c2cc(Cl)cc(Cl)c2)C(=O)C1(C)Cc1ccc(C#N)cc1 (centres unmarked) [Example 151],46,200,5 to 10,No inh^c,+(25),>410,–,–,–
CN1C(=O)N(c2cc(Cl)cc(Cl)c2)C(=O)C1(C)Cc1ccc([N+](=O)[O-])cc1 (centres unmarked) [Example 157],37,400,5 to 10,No inh^c,+(25),>390,–,–,–
CC1(Cc2ccc(Br)cc2)C(=O)N(c2cc(Cl)cc(Cl)c2)C(=O)N1C1CC1 (centres unmarked) [Example 169],50,1500,12 to 25,No inh^c,+(25),160 to 230,–,–,–
CN1C(=O)N(c2cc(Cl)cc(Cl)c2)C(=O)[C@@]1(C)Cc1ccc(-c2ccccc2)cc1 [Example 182],50,20,3 to 6,No inh^c,+(25),200 to 400,–,–,–
C[C@]1(Cc2ccc(C(=O)c3ccccc3)cc2)NC(=O)N(c2cc(Cl)cc(Cl)c2)C1=O [Example 215],–,–,–,–,–,100 to 200,50 to 100,200,"IC50 [2]: 3100 nM; IC50 [4, 10]: > 100 µM; Mixed Lymphocyte Reaction MLR +/− ([5]; at 50 μM): +(50)"
C[C@@]1(Cc2ccc(Br)cc2)C(=O)N(c2cc(Cl)cc(Cl)c2)C(=O)N1CCO [Example 225],–,200,–,–,+(25),50 to 100,3 to 4,630,"Assay to Detect SKW3 Cells Binding to FIBRONECTIN IC50 [4, 11]: No inh^c"
C[C@@]1(Cc2ccc(Br)cc2)C(=O)N(c2cc(Cl)cc(Cl)c2)C(=O)N1CCCCCC(=O)O [Example 226],–,1600,–,–,+(25),100,3 to 6,70,"Assay to Detect SKW3 Cells Binding to FIBRONECTIN IC50 [4, 11]: No inh^c"
C[C@@]1(Cc2ccc(Br)cc2)C(=O)N(c2cc(Cl)cc(Cl)c2)C(=O)N1CCCC(=O)O [Example 227],–,3100,–,–,–,200 to 400,25,180,"Assay to Detect SKW3 Cells Binding to FIBRONECTIN IC50 [4, 11]: No inh^c; Mixed Lymphocyte Reaction MLR +/− ([5]; at 50 μM): +(50)"
C[C@@]1(Cc2ccc(Br)cc2)C(=O)N(c2cc(Cl)cc(Cl)c2)C(=O)N1Cc1cccc(C(=O)O)c1 [Example 229],–,3100,–,–,–,50 to 100,6 to 13,300,"Assay to Detect SKW3 Cells Binding to FIBRONECTIN IC50 [4, 11]: No inh^c; Mixed Lymphocyte Reaction MLR +/− ([5]; at 50 μM): +(50)"
C[C@]1(Cc2ccccc2)NC(=O)N(c2cc(Cl)cc(Cl)c2)C1=O [Example 265],–,3000,–,–,–,130 to 250,19 to 38,280,"IC50 [4, 10]: > 75 µM"
CN1C(=O)N(c2cc(Cl)cc(Cl)c2)C(=O)[C@@]1(C)Cc1ccccc1 [Example 266],–,3000,–,–,–,>500,25 to 50,140,"IC50 [4, 10]: > 50 µM"
CC(C)N1C(=O)N(c2cc(Cl)cc(Cl)c2)C(=O)[C@@]1(C)Cc1ccc(Br)cc1 [Example 273],–,2000,–,–,–,150 to 300,38,190,"IC50 [4, 10]: > 75 µM"
CC(C)N1C(=O)N(c2cc(Cl)cc(Cl)c2)C(=O)[C@]1(C)Cc1ccc(Br)cc1 [Example 274],–,3000,–,–,–,200 to 300,25 to 50,140,"IC50 [4, 10]: > 100 µM"
CCCN1C(=O)N(c2cc(Cl)cc(Cl)c2)C(=O)[C@]1(C)Cc1ccc(Br)cc1 [Example 276],–,500,–,–,+(25),375,10,1110,"Assay to Detect SKW3 Cells Binding to FIBRONECTIN IC50 [4, 11]: No inh^c"

# Reference: patent USRE38132E1, “Phenylpyrrolidines, phenylimidazolidines,3-phenyl-1,3-oxizolidines and 3-phenyl-1,3-thiazolidines and their use in the treatment of inflammatory disease” (Boehringer Ingelheim Pharmaceuticals, Inc., priority 1997, dated 2003)
